Assay results as given in US20010051591A1, “Safening crops from the phytotoxic effects of herbicidally active N-phosphonomethyl-glycines” (priority 2000, published 2001).

How the values were obtained:
Assay type in all cases: in vivo
soybean Variety A3234 = assay: Example 1: phytotoxic injury to soybean, tank mix sprayed on 12-day-old plants; settings: clomazone 0 kg/ha, 21 days after treatment
Method: (§1) The aforementioned solutions were sprayed in admixture as a tank mix onto flats of 12-day-old soybean plants arranged in a randomized, block design. There were four replicates for each rate of application. The soybean plants were evaluated at 21 days after treatment for percent phytotoxic injury by comparison to tests conducted on untreated plants and plants treated with Herbicidal Compound only. The rate of application clomazone for the Safening Composition A, and the rate of application of glyphosate for the Herbicidal Compound are expressed below in kg/ha.

[1] = system: soybean variety Asgrow 2704; assay: as above; settings: clomazone 0 kg/ha, 21 days after treatment
Method: as §1

two soybean varieties = assay: Example 1: average phytotoxic injury to the two soybean varieties; settings: without Safening Composition A
Method: (§2) Glyphosate, tested as ROUNDUP® Ultra Herbicide (termed in Examples 1-3 as “Herbicidal Compound”), and COMMAND® 3 ME Herbicide comprised of at least one plant-safening, inorganic, water-soluble salt (calcium chloride), termed in Examples 1 and 2 as “Safening Composition A”, were tested as water solutions on two soybean varieties (Asgrow 2704 and Asgrow […]). The aforementioned solutions were sprayed in admixture as a tank mix onto flats of 12-day-old soybean plants arranged in a randomized, block design. There were four replicates for each rate of application. The soybean plants were evaluated at 21 days after treatment for percent phytotoxic injury by comparison to tests conducted on untreated plants and plants treated with Herbicidal Compound only. The rate of application clomazone for the Safening Composition A, and the rate of application of glyphosate for the Herbicidal Compound are expressed below in kg/ha.
For example, at the 0.2, 0.4, and 0.8 kg/ha rate of application of Herbicidal Compound, the average injury to the two soybean varieties is about 18%, 46%, and 70%, respectively.

Corn = assay: Example 2: phytotoxic injury to crops, tank mix spray; settings: glyphosate 0.8 kg/ha, clomazone 0 kg/ha; 14 days after treatment
Method: as §2
(§3) As set forth in Example 2, the Herbicidal Compound and Safening Composition A were tested in the same manner as described in Example 1. The aforementioned Herbicidal Compound and Safening Composition A were sprayed as a tank mix onto 10-14 day old crop and weed species. The tests were evaluated at 14 days after treatment for percent injury by comparison to tests conducted on untreated plants and weeds, and plants and weeds treated with Herbicidal Compound only.

Cucumber = assay: as above; settings: glyphosate 0.4 kg/ha, clomazone 0 kg/ha; 14 days after treatment
Method: as §2, §3

Pinto Bean = assay: as above; settings: glyphosate 0.4 kg/ha, clomazone 0 kg/ha; 14 days after treatment
Method: as §2, §3

Rape = assay: as above; settings: glyphosate 0.8 kg/ha, clomazone 0 kg/ha; 14 days after treatment
Method: as §2, §3

Rice = assay: as above; settings: glyphosate 0.4 kg/ha, clomazone 0 kg/ha; 14 days after treatment
Method: as §2, §3

Sorghum = assay: as above; settings: clomazone 0 kg/ha, 14 days after treatment
Method: as §2, §3

Tomato = assay: as above; settings: clomazone 0 kg/ha, 14 days after treatment
Method: as §2, §3

Compound: O=C(O)CNCP(=O)(O)O [Herbicidal Compound, Glyphosate]
- Percent Phytotoxic Injury To Soybean Variety A3234 (soybean Variety A3234; glyphosate 0.2 kg/ha): 22%
- Percent Phytotoxic Injury To Soybean Variety A3234 (soybean Variety A3234; glyphosate 0.4 kg/ha): 54%
- Percent Phytotoxic Injury To Soybean Variety A3234 (soybean Variety A3234; glyphosate 0.8 kg/ha): 81%
- Percent Phytotoxic Injury To Soybean Variety A2704 ([1]; glyphosate 0.2 kg/ha): 14%
- Percent Phytotoxic Injury To Soybean Variety A2704 ([1]; glyphosate 0.4 kg/ha): 38%
- Percent Phytotoxic Injury To Soybean Variety A2704 ([1]; glyphosate 0.8 kg/ha): 60%
- average injury to the two soybean varieties (two soybean varieties; glyphosate 0.2 kg/ha): about 18%
- average injury to the two soybean varieties (two soybean varieties; glyphosate 0.4 kg/ha): ~46%
- average injury to the two soybean varieties (two soybean varieties; glyphosate 0.8 kg/ha): ~70%
- Percent Phytotoxic Injury Corn (Corn): 90%
- Percent Phytotoxic Injury Cucumber (Cucumber): 77%
- Percent Phytotoxic Injury Pinto Bean (Pinto Bean): 63%
- Percent Phytotoxic Injury Rape (Rape): 84%
- Percent Phytotoxic Injury Rice (Rice): 65%
- Percent Phytotoxic Injury Sorghum (Sorghum; glyphosate 0.4 kg/ha): 76%
- Percent Phytotoxic Injury Sorghum (Sorghum; glyphosate 0.8 kg/ha): 100%
- Percent Phytotoxic Injury Tomato (Tomato; glyphosate 0.2 kg/ha): 95%
- Percent Phytotoxic Injury Tomato (Tomato; glyphosate 0.4 kg/ha): 100%
